Key:
Aβ-GFP SH-SY5Y cells = test: Neurite outgrowth analysis; assay type: cell-based, Human; conditions: 5 µM
Experimental: Aβ-GFP SH-SY5Y cells (6 × 10^4 cells) were seeded on a 24-well plate with retinoic acid (10 µM) on day 1. Tested coumarins (5 µM) and doxycycline (5 μg/mL) were added on day 2, as described. On day 8, the cells were washed with phosphate-buffered saline (PBS) twice and fixed in 4% paraformaldehyde at 4 °C for 15 min. Cells were permeabilized with Triton X-100 (0.1%) for 10 min, blocked with bovine serum albumin (3%) for 20 min, and stained with anti-neuronal TUBB3 antibody (1:1000; Covance, Princeton, NJ, USA) at 4 °C overnight. The next day, cells were washed with PBS twice and stained by a secondary donkey anti-rabbit Alexa Fluor® 555 antibody (1:1000; Thermo Fisher Scientific) and 4′,6-diamidino-2-phenylindole (DAPI; 0.1 µg/mL; Sigma-Aldrich) at room temperature for 1 h. Neuronal images from at least 60 individual fields (150–250 neurons per field) per experiment were captured at excitation 531/40 nm and emission 593/40 nm wavelengths using an ImageXpress micro confocal high-content imaging system (Molecular Devices). Neurite total length (μm) and numbers of process (the number of primary neurites originated from the cell body of a neuron) and branch (the number of secondary neurites extended from primary neurites) were analyzed using a MetaXpress neurite outgrowth application module (Molecular Devices). For each sample, around 6000 cells were analyzed in each of three independent experiments.
(§1) Lentiviral short hairpin RNA (shRNA) targeting TRKB (TRCN0000002243, TRCN0000002245, and TRCN0000002246) and a negative-scrambled control (TRC2.Void) were obtained from the National RNAi Core Facility, IMB/GRC, Academia Sinica (Taipei, Taiwan). As described, cells were plated on 6- or 24-well plates, with retinoic acid added on day 1. Cells were infected with lentivirus (multiplicity of infection, 3 for each shRNA), with polybrene (8 µg/mL; Sigma-Aldrich) on the next day. Cells were pretreated with tested compounds (5 µM) for 8 h after changing medium, followed by doxycycline on day 3. Cells were collected for further analysis on day 9. The hairpin sequences of targeting shRNA were below: • TRCN0000002243: 5’-[…]ctcgag[…]-3’ • TRCN0000002245: 5’-[…]ctcgagATGTT-[…]-3’ • TRCN0000002246: 5’-[…]ctcgag[…]-3’ • TRC2.Void: 5’-[…]ctcgag[…]-3’

TRKB = test: Western blot, TRKB and p-TRKB; assay type: cell-based, Human; conditions: 5 µM
Experimental: (§2) Cellular proteins were prepared using a lysis buffer containing NaCl (150 mM), ethylene diamine tetraacetic acid (EDTA, 1 mM, pH8.0), Tris-HCl (50 mM, pH8.0), ethylene glycol tetraacetic acid (EGTA, 1 mM, pH8.0), sodium dodecyl sulfate (SDS, 0.1%), sodium deoxycholate (SD, 0.5%), Triton X-100 (1%), and protease (Sigma-Aldrich), and phosphatase (Abcam, Cambridge, MA, USA) inhibitor cocktails. After quantitation by protein assay kit (Bio-Rad, Hercules, CA, USA), 20 µg proteins were separated by SDS-polyacrylamide (10%) gel electrophoresis and transferred to polyvinylidene difluoride (PVDF) membranes (Sigma-Aldrich) using a Mini Trans-Blot cell (Bio-Rad). After blocking, the membrane was probed with anti-TRKB, anti-p-TRKB (Y516), anti-p-TRKB (Y817) (1:500; Cell Signaling, Danvers, MA, USA), anti-ERK, anti-p-ERK (T202/Y204) (1:1000; Cell Signaling), anti-AKT, anti-p-AKT (S473) (1:1000; Cell Signaling), anti-CREB, anti-p-CREB (S133) (1:1000; Millipore, Billerica, MA, USA), anti-BDNF, anti-BCL2 (1:500; Santa Cruz Biotechnology, Santa Cruz, CA, USA), anti-BAX (1:1000; Cell Signaling), anti-β-tubulin (1:500; Sigma-Aldrich), or anti-GAPDH (1:1000, MDBio, Taipei, Taiwan) antibody. The immune complexes were detected using goat anti-mouse or goat anti-rabbit IgG antibody conjugated with horseradish peroxidase (1:5000; GeneTex, Irvine, CA, USA) and chemiluminescent substrate (Millipore).
as §1

AKT = test: Western blot, p-AKT; assay type: cell-based, Human; conditions: 5 µM; induced untreated 81%
Experimental: as §2

ERK = test: Western blot, p-ERK; assay type: cell-based, Human; conditions: 5 µM; induced untreated 79%
Experimental: as §2

CREB = test: Western blot, p-CREB; assay type: cell-based, Human; conditions: 5 µM; induced untreated 81%
Experimental: as §2

BDNF = test: Western blot, BDNF; assay type: cell-based, Human; conditions: 5 µM
Experimental: as §2

BCL2 = test: Western blot, BCL2; assay type: cell-based, Human; conditions: 5 µM; induced untreated 72%
Experimental: as §2

BAX = test: Western blot, BAX; assay type: cell-based, Human; conditions: 5 µM; induced untreated 182%
Experimental: as §2

in vitro [1] = conditions: for Papp at 18 h, 1 μM: PAMPA
Experimental: PAMPA was used to predict the penetration of the tested compounds across the BBB. […] The filter PVDF membrane (pore size 0.45 μm; Millipore) was coated with 4 μL of porcine polar brain lipid (20 mg/mL; Avanti Polar Lipids, Alabaster, AL, USA) in dodecane and the acceptor well filled with 200 μL of 5% DMSO in PBS. The filter plate was carefully placed on the donor plate to form a sandwich plate at room temperature for 18 h. After the permeation time, the filter and donor plates were separated. The concentration of the tested compound in the donor and acceptor wells was measured by an AB Sciex QTrap 5500 mass spectrometer (Applied Biosystems) linked to a 1200 HPLC system (Agilent Technologies, Palo Alto, CA, USA). The concentrations of the QC compounds were determined by a Tecan Infinite M200 Pro microplate reader (Switzerland). The effective permeability coefficient (Pe) was calculated as described. Each compound was tested in triplicate.

Aβ42 peptide = molecular target: T1, Aβ42 peptide (Homo sapiens, UniProt P05067); test: Thioflavin T aggregation assay; assay type: biochemical; conditions: for Aβ aggregation inhibition (in words): compound 20 μM, thioflavin T assay
T1 construct: Aβ42 peptide (10 μM; Kelowna Int’l Scientific Inc., New Taipei City, Taiwan); purchased Kelowna Int’l Scientific Inc., New Taipei City, Taiwan
Experimental: To form Aβ aggregation, Aβ42 peptide (10 μM; Kelowna Int’l Scientific Inc., New Taipei City, Taiwan) was incubated with tested compounds (5–20 μM) in 150 mM NaCl and 20 mM Tris-HCl (pH8.0) at 37 °C for 48 h. Thioflavin T (10 μM; Sigma-Aldrich) was added to the Aβ mixture and incubated at room temperature for 5 min. The fluorescence intensity was recorded at 420 nm excitation and 485 nm emission by an FLx800 microplate reader (Bio-Tek, Winooski, VT, USA). Half maximal effective concentration (EC50) was estimated by a method of interpolation.

in vitro [2] = assay type: cell-based; conditions: human
Experimental: To induce neuronal differentiation, 2 × 10^4 Aβ-GFP SH-SY5Y cells were seeded on a 96-well plate with retinoic acid (10 µM; Sigma-Aldrich). Cells were pretreated with tested compounds (0.2–5 µM) on day 2 for 8 h and then with doxycycline (5 μg/mL) to induce Aβ-GFP expression. Medium containing retinoic acid compound and doxycycline was refreshed every 2 days for 6 days. Then, cells were stained with Hoechst 33342 (0.1 µg/mL; Sigma-Aldrich) at 37 °C for 30 min. Cell images were recorded at 482/35 nm excitation and 536/40 nm emission wavelengths (ImageXpres Micro Confocal High-Content Imaging System; Molecular Devices, Sunnyvale, CA, USA), and analyzed by MetaXpress (Molecular Devices).

T1 sequence (P05067 672-713 limits assumed): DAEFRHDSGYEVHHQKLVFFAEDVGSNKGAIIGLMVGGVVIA

O=c1cc(-c2ccccc2)oc2c(O)c(O)ccc12 [7,8-DHF, reference compound]
Neurite process number (Aβ-GFP SH-SY5Y cells; TRKB shRNA-infected cells, untreated 2.9): 3.5
Neurite branch number (Aβ-GFP SH-SY5Y cells; scrambled shRNA-infected cells, untreated 2.4): 3.0–3.1
Neurite process number (Aβ-GFP SH-SY5Y cells; scrambled shRNA-infected cells, untreated 3.5): 3.9–4.0
Neurite length (Aβ-GFP SH-SY5Y cells; scrambled shRNA-infected cells, untreated 25.3): 30.7–30.9 µm
p-TRKB (Y516) protein level relative to uninduced cells (100%) (TRKB; induced untreated 40%): 92–100%
p-TRKB (Y817) protein level relative to uninduced cells (100%) (TRKB; induced untreated 71%): 94–108%
TRKB expression relative to uninduced cells (100%) (TRKB; scrambled shRNA-infected Aβ-expressing cells, untreated 80%): 77–81%
p-AKT (S473) protein level relative to uninduced cells (100%) (AKT): 91–110%
p-ERK (T202/Y204) protein level relative to uninduced cells (100%) (ERK): 95–107%
p-CREB (S133) protein level relative to uninduced cells (100%) (CREB): 98–101%
BDNF 14 kDa protein level relative to uninduced cells (100%) (BDNF; induced untreated 42%): 124–140%
BDNF 32 kDa protein level relative to uninduced cells (100%) (BDNF; induced untreated 88%): 113–119%
BCL2 protein level relative to uninduced cells (100%) (BCL2): 104–116%
BAX protein level relative to uninduced cells (100%) (BAX): 126%
BBB Permeability Classification (in vitro [1]; PAMPA-BBB): High (Pe > 4 × 10^−6 cm/s (high))
Measured Pe (effective permeability) (in vitro [1]; PAMPA-BBB, room temperature 18 h, triplicate): 6.32 ± 1.35 10^−6 cm/s

NC(=O)N1c2ccccc2C=Cc2ccccc21 [Carbamazepine, carbamazepine]
Papp at 18 h, 1 μM (in vitro [1]; BBB Permeability Classification): > 4 ×10⁻⁶ cm/s
Papp at 18 h, 1 μM (in vitro [1]; Measured Pe (effective permeability)): 9.85 ± 0.6 ×10⁻⁶ cm/s

CC(Oc1ccc2cc(C(=O)c3ccccc3)c(=O)oc2c1)C(=O)O (stereo not shown) [ZN009, 2-((3-benzoyl-2-oxo-2H-chromen-7-yl)oxy)propanoic acid]
Aβ aggregation inhibition (in words) (Aβ42 peptide): did not inhibit Aβ aggregation

O=C(c1ccc(Cl)cc1)c1c(O)c2ccccc2oc1=O [ZN010, 3-(4-chlorobenzoyl)-4-hydroxy-2H-chromen-2-one]
Aβ aggregation inhibition (in words) (Aβ42 peptide): did not inhibit Aβ aggregation

COc1ccc(C(=O)c2cc3ccc(O)cc3oc2=O)cc1 [ZN011, 7-hydroxy-3-(4-methoxybenzoyl)-2H-chromen-2-one]
Aβ aggregation inhibition (in words) (Aβ42 peptide): did not inhibit Aβ aggregation

COc1cc(/C=C/C(=O)CC(=O)/C=C/c2ccc(O)c(OC)c2)ccc1O [curcumin, Curcumin, reference compound]
Thioflavin T fluorescence (Aβ aggregation) (Aβ42 peptide; compound 20 µM, Aβ42 10 μM, 37 °C 2 days, 621 AU without compound, 151 AU without incubation): 339 AU
viability at 6 days, 10 µM (in vitro [2]): < 80%
Neurite branch number (Aβ-GFP SH-SY5Y cells; induced untreated 1.8, uninduced 2.8): 2.4–2.5
Neurite process number (Aβ-GFP SH-SY5Y cells; induced untreated 3.3, uninduced 4.4): 4.2–4.3
Neurite total length (Aβ-GFP SH-SY5Y cells; induced untreated 23.9, uninduced 31.2): 29.1–29.3 μm

lucifer yellow
Penetration of integrity marker (in words) (in vitro [1]; PAMPA-BBB, indicates good membrane integrity): undetectable
% Transport (in vitro [1]; PAMPA-BBB, integrity marker): 0.00 (% Transport)

From PMC8619673 (Cells, 2021)
